Reference: patent US20110263693A1, “CELASTROL, GEDUNIN, AND DERIVATIVES THEREOF AS HSP90 INHIBITORS” (DANA-FARBER CANCER INSTITUTE, INC., priority 2006, published 2011)

How the values were obtained:
celastrol signature = test: Connectivity Map query with the celastrol signature; type: cell-based, human; design: key to celastrol score (connectivity score): connectivity score, based on Kolmogorov-Smirnov statistic; details: for celastrol score (connectivity score): enrichment of the celastrol signature (1.25 μM celastrol at 6 h, LNCaP) in the compound's Connectivity Map profiles, 6 hr treatment; for celastrol rank: rank by celastrol score among 164 Connectivity Map compounds
Source text: (§1) Indeed, a major challenge in cell-based chemical biology and chemical genomics is the identification of compounds' targets (Gardner et al., 2003). We hypothesized that gene expression signatures could be used to identify compound action based on the similarity of such compound-induced signatures to signatures of existing drugs of known mechanism. We therefore employed a collection of gene expression profiles of drug-treated cell lines that was developed in our lab, termed the Connectivity Map (Lamb et al., 2006). This database comprises 453 genome-wide Affymetrix expression profiles derived from the treatment of human cell lines with 164 small molecules, primarily FDA-approved drugs. A 6 hr treatment time was chosen in an attempt to capture the primary, and potentially mechanistic, effects of the compounds rather than the downstream phenotypic consequences.
(§2) In order to use the Connectivity Map to gain insight into celastrol and gedunin function, we first defined a gene expression signature of celastrol and gedunin activity. The expression signatures of celastrol and gedunin were derived by expression profiling of RNA from LNCaP cells treated with celastrol (1.25 μM), gedunin (20 μM), and vehicle (DMSO) for 6 hr; signatures were defined using comparative marker selection to identify transcripts that distinguished between the compound- and vehicle-treated profiles by the signal-to-noise (SNR) metric. The enrichment of these signatures in the gene expression profiles of the Connectivity Map database was then assessed using a gene enrichment metric, the connectivity score, based on the Kolmogorov-Smirnov statistic (Lamb et al., 2003).
(§3) The celastrol and gedunin signatures were developed from RMA-processed microarray data from LNCaP cells treated with 1.25 μM celastrol or 20 μM gedunin for 6 hours. Comparative marker selection was used to identify markers that distinguished celastrol- and/or gedunin-treated samples from vehicle-treated samples by the median SNR (Golub et al., 1999). The top 50 markers that increased and decreased relative to vehicle-treated controls were used as the signatures.
(§4) The current version of the Connectivity Map data set (build01) contains genome-wide expression data for 453 treatment and vehicle control pairs, representing 164 distinct small molecules. Cell treatments and Affymetrix profiling were predominantly carried out in MCF7 cells with 6 hr treatments as detailed (Table 4) (Lamb et al., 2006). Enrichment of the induced and repressed genes of a signature within each Connectivity Map treatment profile was estimated with a metric based on the Kolmogorov-Smirnov statistic as described (Lamb et al., 2003, Lamb et al., 2006). Connectivity Map data are available at www.broad.mit.edu/cmap/ and GEO (accession number GSE5258).
(§5) For the celastrol and gedunin signatures, RMA-processed data was filtered and thresholded (min fold change=2, min absolute change=50, floor=10, ceiling=16000). Comparative marker selection (GenePattern) was used to identify markers that distinguished celastrol- and/or gedunin-treated samples from vehicle-treated samples by the median SNR. The top fifty markers that increased and decreased relative to vehicle treated controls were used as the celastrol, gedunin, or joint celastrol/gedunin signatures.
(§6) The current version of The Connectivity Map dataset (build01) contains genome-wide expression data for 453 treatment and vehicle control pairs, representing 164 distinct small molecules. Cell treatments were predominantly carried out in the MCF7 cell line for 6 h as detailed in Table 4. Affymetrix profiling was then carried out as described (Lamb et al., 2006).

gedunin signature = test: Connectivity Map query with the gedunin signature; type: cell-based, human; design: key to gedunin score (connectivity score): connectivity score, based on Kolmogorov-Smirnov statistic; details: for gedunin score (connectivity score): enrichment of the gedunin signature (20 μM gedunin at 6 hours, LNCaP) in the compound's Connectivity Map profiles, 6 hr treatment; for gedunin rank: rank by gedunin score among 164 Connectivity Map compounds
Source text: as §1, §2, §3, §4, §5, §6

Molecule	celastrol score (connectivity score) (celastrol signature)	celastrol rank (celastrol signature)	gedunin score (connectivity score) (gedunin signature)	gedunin rank (gedunin signature)
COc1cc(/C=C(\C#N)C(N)=O)cc(CSc2nc3ccccc3s2)c1O [tyrphostin AG-825]	0	137	0	141
CC1=C(CC(=O)O)c2cc(F)ccc2/C1=C\c1ccc([S+](C)[O-])cc1 (centres unmarked) [sulindac]	0.207	–	0.177	–
Oc1cc(O)c2c(c1)OC(c1ccc(O)c(O)c1)C(O)C2 (single isomer, unassigned; (-)) [(−)-catechin]	0	113	0.457	24
COC(=O)[C@@H]1[C@H]2C[C@H]3c4[nH]c5ccccc5c4CCN3C[C@@H]2CC[C@@H]1O [yohimbine]	0	–	0	–
CCCCNC(=O)NS(=O)(=O)c1ccc(C)cc1 [tolbutamide]	0.497	–	0	–
Cc1nc2c(O)cccc2c(=O)[nH]1 [NU-1025]	−0.362	156	−0.222	152
C[C@@H]1NC(=O)[C@H]2CCCN2C(=O)[C@H](CCCCCC(=O)[C@@H]2CO2)NC(=O)[C@@H](C)NC1=O [HC toxin]	0	90	0.526	15
NCCc1ccc(O)c(O)c1 [dopamine]	−0.596	–	0	–
O=C(O)c1ccccc1Nc1cccc(C(F)(F)F)c1 [flufenamic acid]	0	–	0	–
O=c1c(-c2ccc(O)cc2)coc2cc(O)cc(O)c12 [genistein]	0.153	–	0.097	–
BW-B70C	0.719	10	0.557	12
O=C(O)Cc1ccccc1Nc1c(Cl)cccc1Cl [diclofenac]	−0.197	–	−0.165	–
O=C1CCc2c(ccc3ccccc23)O1 [splitomicin]	−0.525	–	0	–
CC(C)c1ccc2c(c1)c(SC(C)(C)C)c(CC(C)(C)C(=O)O)n2Cc1ccc(Cl)cc1 [MK-886]	0	94	−0.336	155
N=C1C=CC(=C(c2ccc(N)cc2)c2ccc(N)cc2)C=C1 [pararosaniline]	0.579	–	0.496	–
C/C(=C\c1ccc(C(=O)O)cc1)c1ccc2c(c1)C(C)(C)CCC2(C)C [TTNPB]	0	97	0.095	74
CN1CCN(CCCN2c3ccccc3Sc3ccc(Cl)cc32)CC1 [prochlorperazine]	0.559	–	0.507	–
CS(=O)(=O)c1ccc(-n2nc(C(F)(F)F)cc2-c2ccc(F)cc2)cc1 [SC-58125]	−0.112	–	0.09	–
CN[C@H]1CCc2cc(OC)c(OC)c(OC)c2-c2ccc(OC)c(=O)cc21 [demecolcine]	0	–	0	–

Molecule	celastrol score (connectivity score) (celastrol signature)	celastrol rank (celastrol signature)	gedunin score (connectivity score) (gedunin signature)	gedunin rank (gedunin signature)
CC(=O)O[C@H]1C(=O)[C@@]2(C)[C@H]([C@H](OC(=O)c3ccccc3)[C@]3(O)C[C@H](OC(=O)[C@H](O)[C@@H](NC(=O)c4ccccc4)c4ccccc4)C(C)=C1C3(C)C)[C@]1(OC(C)=O)CO[C@@H]1C[C@@H]2O [paclitaxel]	0.319	–	0	–
NC(=O)c1cccc(N)c1 [3-aminobenzamide]	−0.587	–	0	–
CN[C@@H]1C[C@H]2O[C@@](C)([C@@H]1OC)n1c3ccccc3c3c4c(c5c6ccccc6n2c5c31)C(=O)NC4 [staurosporine]	0.092	–	0	–
COC(=O)CNC(=O)C(=O)OC [dimelhyloxalylglycine]	0.326	44	0	119
O=c1c(O)c(-c2ccc(O)c(O)c2)oc2cc(O)cc(O)c12 [quercetin]	−0.111	–	−0.431	–
Clc1ccc(C(c2ccc(Cl)cc2)n2cc[n+](CC(OCc3ccc(Cl)cc3Cl)c3ccc(Cl)cc3Cl)c2)cc1 (centres unmarked) [calmidazolium]	0.334	–	0.619	–
C=C1[C@@H](C)[C@H]2[C@H](Cc3ccccc3)NC(=O)[C@]23OC(=O)/C=C/[C@H](O)CCC[C@@H](C)C/C=C/[C@H]3[C@@H]1O [cytochalasin B]	0	125	0.476	22
C[C@]12CC[C@@H]3c4ccc(O)cc4CC[C@H]3[C@@H]1CC[C@@H]2O [estradiol]	0.017	–	−0.166	–
CC1=C(/C=C/C(C)=C/C=C/C(C)=C/C(=O)O)C(C)(C)CCC1 [tretinoin]	−0.084	–	−0.206	–
CCCCC/C=C/C=C1/C(=O)C=C[C@@H]1C/C=C\CCCC(=O)O [15-delta prostaglandin J2]	0.76	7	0.565	9
N#CC(=C(N)Sc1ccccc1)C(C#N)=C(N)Sc1ccccc1 [U0125]	0	106	0	122
COC1=C2C[C@@H](C)C[C@H](OC)[C@H](O)[C@@H](C)/C=C(\C)[C@H](OC(N)=O)[C@@H](OC)/C=C\C=C(/C)C(=O)NC(=CC1=O)C2=O [geldanamycin, reference compound]	0.676	–	0.74	–
O=C(O)c1ccccc1Nc1ccccc1 [N-phenylanthranilic acid]	0	–	−0.472	–
C[C@H](CCC(=O)O)C[C@H](C)C[C@H](C)C(=O)/C=C(\O)[C@H](C)C[C@H](C)C/C=C/[C@@H](C)[C@@H](O)[C@@H](C)[C@@H](O)C[C@@H]1CC[C@@](C)([C@H]2CC[C@@](C)([C@@H](C)O)O2)O1 [ionomycin]	0.556	–	0.129	–
CO[C@H]1C[C@@H]2CC[C@@H](C)[C@@](O)(O2)C(=O)C(=O)N2CCCC[C@H]2C(=O)O[C@H]([C@H](C)C[C@@H]2CC[C@@H](O)[C@H](OC)C2)CC(=O)[C@H](C)/C=C(\C)[C@@H](O)[C@@H](OC)C(=O)[C@H](C)C[C@H](C)/C=C/C=C/C=C/1C [sirolimus]	−0.283	–	0	–
CCCCC/C=C\C/C=C\C/C=C\C/C=C\CCCC(=O)O [arachidonic acid]	0	–	−0.222	–
CC#CCC(C)[C@H](O)/C=C/[C@@H]1[C@H]2C/C(=C/CCCC(=O)O)C[C@H]2C[C@H]1O (some centres unmarked) [iloprost]	0.098	–	0.101	–
CC(/C=C/C(=O)NO)=C\[C@@H](C)C(=O)c1ccc(N(C)C)cc1 [trichostatin A]	−0.02	141	0.427	29
